From US10925282B2, “Enhanced kill of microorganisms” (CONOCOPHILLIPS COMPANY, priority 2017, dated 2021)
Where two headings read alike, the source gives them in different places.

Assays:
[1] = tested on: freshwater denitrifying culture; settings: 20 mM; 30-minute exposure; cited from earlier work
[2] = tested on: Barnett sulfate reducing bacteria (SRB) culture
[3] = 1 mM nitrite, approximately 24 hours

## [O]=[W](=[O])([O-])[O-] [tungstate]
[1]
  reduction of ATP levels: 41%

## O=NO [nitrite]
[2]; [3]
  cATP concentration: below 1000 picograms per mL
  reduction in cATP concentrations: > 90%
[2]; 1 mM nitrite, initial microbial equivalency 1.0×10^7 cells/mL, 30° C.
  time required to reach a cATP concentration below 1000 picograms per mL: Approximately 24 hours
[2]; 2 mM nitrite, same time period (approximately 24 hours)
  reduction in cATP concentrations: > 99%
